Source: patent publication US20250179059A1 (The Regents of the University of California, priority 2021, published 2025)
Where two headings read alike, the source gives them in different places.

Experiments:
[1] = biological target: T1, human BRD4 bromodomain II (Homo sapiens, UniProt O60885); assay: Bromodomain binding assay (AlphaScreen), BRD4 BDII
T1 construct: human BRD4 bromodomain II [based on Genbank NM_058243, residues 349-460]; host or cells: E. coli
Summary of the method: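 E. coli-expressed N-terminal His6-tagged human BRD4 BDII (residues 349-460) or BDI (residues 44-170) was preincubated 30 min at room temperature with compound (10-point, 3-fold) in pH 7.5 HEPES buffer, 1% DMSO. Displacement of biotinylated tetra-acetylated H4 1-21 peptide was read by AlphaScreen, and IC50 came from curve fitting.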

[2] = tested on: human SKM-1 acute myeloid leukemia cells; assay: SKM-1 antiproliferation cell-based assay (ATPlite)
Summary of the method: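 Log-phase cells in RPMI 1640/15% FBS were seeded at 34722 cells/mL and exposed for 4 days to nine-concentration DMSO serial dilutions in triplicate. Viability was read as ATP luminescence (ATPlite 1step), and IC50 values came from variable-slope non-linear regression.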

[3] = AlphaScreen assay, Table C2, read-out: BRD4 BDII IC50
[4] = Homo sapiens, SKM-1, 96 h, SKM-1 antiproliferation assay, 4 days, Table C2
[5] = BRD4 BDII AlphaScreen assay, read-out: BRD4 BD2 IC50
[6] = Homo sapiens, SKM-1, SKM-1 antiproliferation assay

Row | SMILES | IC50 [1, 3] [nM] | GI50 [2, 4] [nM] | IC50 [1, 5] [nM] | GI50 [2, 6] [nM] | GI50 ([2]; SKM-1 antiproliferation assay) [nM]
1 | Cn1ccn(-c2ccc(-c3cc(F)cc(-c4cncc(N5CC6CCC(C5)N6)c4)c3O)cc2Cl)c1=O [Example 512, 1-(3′-(5-(3,8-diazabicyclo[3.2.1]octan-3-yl)pyridin-3-yl)-3-chloro-5′-fluoro-2′-hydroxy-[1,1′-biphenyl]-4-yl)-3-methyl-1H-imidazol-2(3H)-one] | 1 to 10 | 0.3 to 30 | – | – | –
2 | CC(=O)Nc1ccc(-c2cccc(-c3cccc(N4CCNC(=O)C4)c3)c2O)cc1F [Example 254, N-(3-fluoro-2′-hydroxy-3″-(3-oxopiperazin-1-yl)-[1,1′:3′,1″-terphenyl]-4-yl)acetamide] | 10 to 100 | ≥ 3000 | – | – | –
3 | Cc1cc(-c2cc(C)nc(N3CC[C@H](N)C3)c2)c(O)c(-c2ccc(-n3ccn(C)c3=O)c(Cl)c2)c1 [Example 518, (S)-1-(3′-(2-(3-aminopyrrolidin-1-yl)-6-methylpyridin-4-yl)-3-chloro-2′-hydroxy-5′-methyl-[1,1′-biphenyl]-4-yl)-3-methyl-1H-imidazol-2(3H)-one] | 0.01 to 1 | 0.3 to 30 | – | – | –
4 | CCC(=O)Nc1cc(-c2cc(F)cc(-c3ccc(-n4ccn(C)c4=O)c(Cl)c3)c2O)cc(N2CC[C@H](N)C2)n1 [Example 523, (S)-N-(6-(3-aminopyrrolidin-1-yl)-4-(3′-chloro-5-fluoro-2-hydroxy-4′-(3-methyl-2-oxo-2,3-dihydro-1H-imidazol-1-yl)-[1,1′-biphenyl]-3-yl)pyridin-2-yl)propionamide] | 1 to 10 | 0.3 to 30 | – | – | –
5 | Cc1cc(-c2ccnc(N3CCNCC3)c2)c(O)c(-c2ccc(N3CCN(C)C3=O)c(Cl)c2)c1 [Example 306, l-(3-chloro-2′-hydroxy-5′-methyl-3′-(2-(piperazin-1-yl)pyridin-4-yl)-[1,1'-biphenyl]-4-yl)-3-methylimidazolidin-2-one] | 1 to 10 | 30 to 300 | – | – | –
6 | Cc1cc(-c2ccc(-n3ccn(C)c3=O)c(Cl)c2)c(O)c(-c2cc(N3CCN(C(C)(C)C)CC3)n(C)c(=O)c2)n1 [Example 1009, 6′-(4-(tert-butyl)piperazin-1-yl)-4-(3-chloro-4-(3-methyl-2-oxo-2,3-dihydro-1H-imidazol-1-yl)phenyl)-3-hydroxy-1′,6-dimethyl-[2,4′-bipyridin]-2′(1′H)-one] | – | – | 1 to 10 | 0.3 to 30 | –
7 | CCc1ncc(-c2cc(F)cc(-c3ccc(N4CCN(C)C4=O)c(Cl)c3)c2O)cc1N1CCNCC1 [Example 382, 1-(3-chloro-3′-(6-ethyl-5-(piperazin-1-yl)pyridin-3-yl)-5′-fluoro-2′-hydroxy-[1,1′-biphenyl]-4-yl)-3-methylimidazolidin-2-one] | 1 to 10 | 30 to 300 | – | – | –
8 | Cn1ccn(-c2ccc(-c3cc(F)cc(-c4cncc(N5CCN(C(C)(C)C)CC5)c4)c3O)cc2Cl)c1=O [Example 664, 1-(3′-(5-(4-(tert-butyl)piperazin-1-yl)pyridin-3-yl)-3-chloro-5′-fluoro-2′-hydroxy-[1,1′-biphenyl]-4-yl)-3-methyl-1H-imidazol-2(3H)-one] | 0.01 to 1 | 0.3 to 30 | – | – | –
9 | CC1=CCN(c2ccc(-c3cc(F)cc(-c4ccnc(N5CCNCC5)c4)c3O)cc2Cl)C1=O [Example 366, 1-(3-chloro-5′-fluoro-2′-hydroxy-3′-(2-(piperazin-1-yl)pyridin-4-yl)-[1,1′-biphenyl]-4-yl)-3-methyl-1,5-dihydro-2H-pyrrol-2-one] | 1 to 10 | 30 to 300 | – | – | –
10 | C[C@@H]1CN(c2cc(-c3cc(Cl)cc(-c4ccc(-n5ccn(C)c5=O)c(F)c4)c3O)ccn2)CCN1 [Example 538, (R)-1-(5′-chloro-3-fluoro-2′-hydroxy-3′-(2-(3-methylpiperazin-1-yl)pyridin-4-yl)-[1,1′-biphenyl]-4-yl)-3-methyl-1H-imidazol-2(3H)-one] | 1 to 10 | 30 to 300 | – | – | –
11 | CC(C)c1cc(-c2cc(F)cc(-c3cccc(N4CCN(C(C)(C)C)CC4)c3)c2O)cc(Cl)c1-n1ccn(C)c1=O [Example 934, (R)-1-(3″-(4-(tert-butyl)piperazin-1-yl)-3-chloro-5′-fluoro-2′-hydroxy-5-isopropyl-[1,1′:3′,1″-terphenyl]-4-yl)-3-methyl-1,3-dihydro-2H-imidazol-2-one] | – | – | > 100 | – | 300 to 3000
12 | Cn1ccn(-c2ccc(-c3cc(F)cc(-c4ccnc(N5CC6(CC6)[C@@](C)(O)C5)c4)c3O)cc2Cl)c1=O [Example 816] | 0.01 to 1 | 0.3 to 30 | – | – | –
13 | CCN1CCN(c2ccc(-c3cccc(-c4ccnc(N5CCNCC5)c4)c3O)cc2Cl)C1=O [Example 346, 1-(3-chloro-2′-hydroxy-3′-(2-(piperazin-1-yl)pyridin-4-yl)-[1,1′-biphenyl]-4-yl)-3-ethylimidazolidin-2-one] | > 100 | 300 to 3000 | – | – | –
14 | CN1CCN(c2ccc(-c3cc(F)cc(-c4ccc(CO)c(N5CCNCC5)c4)c3O)cc2Cl)C1=O [Example 358, 1-(3-chloro-5′-fluoro-2′-hydroxy-4″-(hydroxymethyl)-3″-(piperazin-1-yl)-[1,1′:3′,1″-terphenyl]-4-yl)-3-methylimidazolidin-2-one] | 1 to 10 | 30 to 300 | – | – | –
15 | CNc1ncc(-c2cc(F)cc(-c3ccc(-n4ccn(C)c4=O)c(Cl)c3)c2O)cc1N1CCC2(CCCN2C(C)C)C1 (stereo not shown) [Example 970, 1-(3-chloro-5′-fluoro-2′-hydroxy-3′-(5-(1-isopropyl-1,7-diazaspiro[4.4]nonan-7-yl)-6-(methylamino)pyridin-3-yl)-[1,1′-biphenyl]-4-yl)-3-methyl-1H-imidazol-2(3H)-one] | – | – | 1 to 10 | 0.3 to 30 | –
16 | Cn1ccn(-c2ccc(-c3cc(F)cc(-c4cc(N5CC[C@H](N)C5)c5nccnc5c4)c3O)cc2Cl)c1=O [Example 548, (S)-1-(3′-(8-(3-aminopyrrolidin-1-yl)quinoxalin-6-yl)-3-chloro-5′-fluoro-2′-hydroxy-[1,1′-biphenyl]-4-yl)-3-methyl-1H-imidazol-2(3H)-one] | 1 to 10 | 0.3 to 30 | – | – | –
17 | CN1CCN(c2cc(-c3cc(F)cc(-c4ccc(-n5ccn(C)c5=O)c(Cl)c4)c3O)ccn2)CC1 [Example 430, 1-(3-chloro-5′-fluoro-2′-hydroxy-3′-(2-(4-methylpiperazin-1-yl)pyridin-4-yl)-[1,1′-biphenyl]-4-yl)-3-methyl-1H-imidazol-2(3H)-one] | 0.01 to 1 | 0.3 to 30 | – | – | –
18 | CC(C)N1CCN(c2cc(-c3cc(F)cc(-c4ccc(-n5ccn(C)c5=O)c(Cl)c4)c3O)ccc2C(F)F)CC1 [Example 814, 1-(3-chloro-4″-(difluoromethyl)-5′-fluoro-2′-hydroxy-3″-(4-isopropylpiperazin-1-yl)-[1,1′:3′,1″-terphenyl]-4-yl)-3-methyl-1H-imidazol-2(3H)-one] | 0.01 to 1 | 0.3 to 30 | – | – | –
19 | C[C@@H]1CN(c2cc(-c3cc(F)cc(-c4ccc(-n5ccn(C)c5=O)c(Cl)c4)c3O)cc3c2ccn3C)CCN1 [Example 579, (R)-1-(3-chloro-5′-fluoro-2′-hydroxy-3′-(1-methyl-4-(3-methylpiperazin-1-yl)-1H-indol-6-yl)-[1,1′-biphenyl]-4-yl)-3-methyl-1H-imdazol-2(3H)-one] | 0.01 to 1 | 0.3 to 30 | – | – | –
20 | CN1CCCC12CCCN(c1cc(-c3cc(F)cc(-c4ccc(-n5ccn(C)c5=O)c(Cl)c4)c3O)ccn1)C2 (stereo not shown) [Example 695, 1-(3-chloro-5′-fluoro-2′-hydroxy-3′-(2-(1-methyl-1,7-diazaspiro[4.5]decan-7-yl)pyridin-4-yl)-[1,1′-biphenyl]-4-yl)-3-methyl-1H-imidazol-2(3H)-one] | 0.01 to 1 | 0.3 to 30 | – | – | –
21 | CCOc1cc(-c2cc(F)cc(-c3cccc(N4CCN(C(C)(C)C)CC4)c3)c2O)cc(Cl)c1-n1ccn(C)c1=O [Example 925, 1-(3″-(4-(tert-Butyl)piperazin-1-yl)-3-chloro-5-ethoxy-5′-fluoro-2′-hydroxy-[1,1′:3′,1″-terphenyl]-4-yl)-3-methyl-1H-imidazol-2(3H)-one] | – | – | 10 to 100 | 30 to 300 | –
22 | [2H]C([2H])([2H])n1ccn(-c2ccc(-c3cc(F)cc(-c4ccnc(N5CC[C@H](NC)C5)c4)c3O)cc2Cl)c1=O [Example 466, (S)-1-(3-chloro-5′-fluoro-2′-hydroxy-3′-(2-(3-(methylamino)pyrrolidin-1-yl)pyridin-4-yl)-[1,1′-biphenyl]-4-yl)-3-(deuteromethyl)-1H-imidazol-2(3H)-one] | 0.01 to 1 | 0.3 to 30 | – | – | –
23 | CC(C)N1CCN(c2cc(-c3cc(F)cc(-c4ccc(-n5ccn(C)c5=O)c(Cl)c4)c3O)ccn2)CC1 [Example 530, 1-(3-chloro-5′-fluoro-2′-hydroxy-3′-(2-(4-isopropylpiperazin-1-yl)pyridin-4-yl)-[1,1′-biphenyl]-4-yl)-3-methyl-1H-imidazol-2(3H)-one] | 0.01 to 1 | 0.3 to 30 | – | – | –
24 | Cn1ccn(-c2ccc(-c3cc(F)cc(-c4cccc(-c5ccc(N)cc5)c4)c3O)cc2Cl)c1=O [Example 855] | – | – | 10 to 100 | 30 to 300 | –
25 | Cn1ccn(-c2ccc(-c3cc(F)cc(-c4ccnc(N5CCC(N)(CO)C5)c4)c3O)cc2Cl)c1=O (stereo not shown) [Example 750, 1-(3′-(2-(3-amino-3-(hydroxymethyl)pyrrolidin-1-yl)pyridin-4-yl)-3-chloro-5′-fluoro-2′-hydroxy-[1,1′-biphenyl]-4-yl)-3-methyl-1H-imidazol-2(3H)-one] | 0.01 to 1 | 0.3 to 30 | – | – | –
26 | CN1CCN(c2ccc(-c3cc(F)cc(-c4ccnc(NCCN)c4)c3O)cc2Cl)C1=O [Example 363, 1-(3′-(2-((2-aminoethyl)amino)pyridin-4-yl)-3-chloro-5′-fluoro-2′-hydroxy-[1,1′-biphenyl]-4-yl)-3-methylimidazolidin-2-one] | 10 to 100 | 300 to 3000 | – | – | –
